# US12594267B2, “Capsid inhibitors for the treatment of HIV” (Gilead Sciences, Inc., priority 2018, dated 2026)
# Like-named read-outs stand apart in the source and are kept apart here.
# Assay: PK after subcutaneous administration of solutions in dogs
# Format: in vivo, Beagle dog
# Conditions: dog, plasma, sc, dog, mean ± SD, n=3; for concentration at 56 d: read-out: C56d
# Procedure: Formulations containing the compound of Formula (Ia) were prepared as aqueous solutions or oral formulations and administered subcutaneously to rats, dogs, cynomolgus monkey, and/or rhesus monkey.
# A solution of the compound of Formula (Ia) in 10% ethanol, 13% water, and 77% PEG 200 (400 mg/mL) was prepared. The solution was administered subcutaneously to dogs at a dose of 12 mg/kg and rats at a dose of 50 mg/kg and the pharmacokinetic (PK) profile was determined. […] In both species, plasma concentrations of the compound of Formula (Ia) were maintained above the target trough concentration of 20 nM (corresponding to an IQ of 5) for at least 84 days (12 weeks).
# A solution of the compound of Formula (Ia) in 15% water and 85.0 PEG 300 (400 mg/mL) was prepared. The solution was administered subcutaneously to male beagle dogs at a dose level of 12 mg/kg and dose volume of […] and the pharmacokinetic (PK) profile was determined.
# A solution of the compound of Formula (a) sodium salt in water and 300 (300 mg/mL) was prepared that contained 22.6% water/50% PEG 300/1.1% NaOH/26.3% Formula (Ia). The solution was administered subcutaneously to male beagle dogs at a dose level of 12 mg/kg and dose volume of […] and the pharmacokinetic (PK) profile was determined.
# A 300 mg/ml solution of a compound of Formula (Ia) having 9.8 w/w % water, 65.0 w/w % PEG 300, and 25.2 w/w % of the compound of Formula (Ia) was prepared. The solution was administered subcutaneously to rats at a dose of 50 mg/kg and to dogs at a dose of 12 mg/kg and the pharmacokinetic (PK) profile was determined. […] In the rat, plasma concentrations of the compound of Formula (Ia) were maintained above the target trough concentration of 20 nM for at least 168 days (24 weeks). In the dog, plasma concentrations of the compound of Formula (Ia) were maintained above the target trough concentration of 20 nM for at least 84 days (12 weeks).
# (§1) A 150 mg/ml solution of a compound of Formula (Ia) having 27.92 w/w % water, 58.04 w/w % PEG 300, 13.47 w/w % of a compound of Formula (Ia), and 1.1 w/w % NaOH was prepared. The solution was administered subcutaneously to rats at a dose of 50 mg/kg and to dogs at a dose of 12 mg/kg and the pharmacokinetic (PK) profile was determined. […] In the rat, plasma concentrations of the compound of Formula (Ia) were maintained above the target trough concentration of 20 nM for at least 126 days (18 weeks). In the dog, plasma concentrations of the compound of Formula (Ia) were maintained above the target trough concentration of 20 nM for at least 56 days (8 weeks).
# as §1, with “300” for “150”, “23.2” for “27.92”, “50.0” for “58.04”, “25.7” for “13.47”
# A 50 mg/ml solution of a compound of Formula (Ia) having 30.07 w/w % water, 64.40 w/w % PEG 300, 4.68 w/w % of a sodium salt of the compound of Formula (Ia), and 0.85 w/w % poloxamer 188 was prepared. The solution was administered subcutaneously to rats at a dose of 50 mg/kg and to dogs at a dose of 6 mg/kg and the pharmacokinetic (PK) profile was determined. […] In the rat, plasma concentrations of the compound of Formula (Ia) were maintained above the target trough concentration of 20 nM for at least 28 days (4 weeks). In the dog, plasma concentrations of the compound of Formula (Ia) were maintained above the target trough concentration of 20 nM for at least 14 days (2 weeks). […]
# [1] = Beagle, 6 mg/kg, SC 6 mg/kg, 150 mg/mL solution (w/w %: 26.6 water, 56.97 PEG 300, 13.39 Formula (Ia), 0.57 NaOH, 2.49 poloxamer 188)
# [2] = beagle, 6 mg/kg, SC 6 mg/kg, 300 mg/mL solution (w/w %: 21.97 water, 47.05 PEG 300, 25.21 Formula (Ia), 1.08 NaOH, 4.69 poloxamer 188)
# [3] = beagle, 12 mg/kg, SC 12 mg/kg, 150 mg/mL solution (w/w %: 27.92 water, 58.04 PEG 300, 13.47 Formula (Ia), 1.1 NaOH)
# [4] = beagle, 12 mg/kg, SC 12 mg/kg, 300 mg/mL solution (w/w %: 9.8 water, 65.0 PEG 300, 25.2 Formula (Ia))
# [5] = beagle, 12 mg/kg, SC 12 mg/kg, 300 mg/mL solution (w/w %: 23.2 water, 50.0 PEG 300, 25.7 Formula (Ia), 1.1 NaOH)
smiles,measurement,setting,value
"CC(C)(C#Cc1ccc(-c2ccc(Cl)c3c(NS(C)(=O)=O)nn(CC(F)(F)F)c23)c([C@H](Cc2cc(F)cc(F)c2)NC(=O)Cn2nc(C(F)(F)F)c3c2C(F)(F)[C@@H]2C[C@H]32)n1)S(C)(=O)=O [Formula (Ia), N—((S)-1-(3-(4-chloro-3-(methylsulfonamido)-1-(2,2,2-trifluoroethyl)-1H-indazol-7-yl)-6-(3-methyl-3-(methylsulfonyl)but-1-yn-1-yl)pyridin-2-yl)-2-(3,5-difluorophenyl)ethyl)-2-((3bS,4aR)-5,5-difluoro-3-(trifluoromethyl)-3b,4,4a,5-tetrahydro-1H-cyclopropa[3,4]cyclopenta[1,2-c]pyrazol-1-yl)acetamide]",AUC(0-t),"Beagle, 6 mg/kg, SC 6 mg/kg, 100 mg/mL solution (w/w %: 28.36 water, 60.73 PEG 300, 9.23 sodium salt of Formula (Ia), 1.68 poloxamer 188), read-out: AUC0-24h",6.05 ± 3.43 µM·h
same,AUC(0-t),"Beagle, 6 mg/kg, SC 6 mg/kg, 125 mg/mL solution (w/w %: 27.51 water, 58.92 PEG 300, 11.48 sodium salt of Formula (Ia), 2.09 poloxamer 188), read-out: AUC0-24h",4.71 ± 1.51 µM·h
same,AUC(0-t),"Beagle, 6 mg/kg, SC 6 mg/kg, 125 mg/mL solution (w/w %: 27.51 water, 58.92 PEG 300, 11.48 sodium salt of Formula (Ia), 2.09 poloxamer 188), read-out: AUC0-14d",90.3 ± 3.5 µM·h
same,Cmax,[1],101 ± 44 nM
same,Tmax,[1],10 ± 15.6 days
same,AUC(0-t),"Beagle, 6 mg/kg, SC 6 mg/kg, 150 mg/mL solution (w/w %: 26.6 water, 56.97 PEG 300, 13.39 Formula (Ia), 0.57 NaOH, 2.49 poloxamer 188), read-out: AUC0-56d",69 ± 13.9 µM·h
same,AUC(0-t),"Beagle, 6 mg/kg, SC 6 mg/kg, 150 mg/mL solution (w/w %: 26.6 water, 56.97 PEG 300, 13.39 Formula (Ia), 0.57 NaOH, 2.49 poloxamer 188), read-out: AUC0-84d",76.6 ± 8.5 µM·h
same,concentration at 56 d,[1],24.9 nM
same,AUC(0-t),"beagle, 6 mg/kg, SC 6 mg/kg, 50 mg/mL solution (w/w %: 30.07 water, 64.40 PEG 300, 4.68 sodium salt of Formula (Ia), 0.85 poloxamer 188), read-out: AUC0-24h",14.7 ± 4.4 µM·h
same,concentration at 14 d,"beagle, 6 mg/kg, SC 6 mg/kg, 50 mg/mL solution (w/w %: 30.07 water, 64.40 PEG 300, 4.68 sodium salt of Formula (Ia), 0.85 poloxamer 188), read-out: C14d",37.2 ± 13.9 nM
same,AUC(0-t),"beagle, 6 mg/kg, SC 6 mg/kg, 75 mg/mL solution (w/w %: 29.21 water, 62.55 PEG 300, 6.97 sodium salt of Formula (Ia), 1.68 poloxamer 188), read-out: AUC0-24h",5.88 ± 1.95 µM·h
same,AUC(0-t),"beagle, 6 mg/kg, SC 6 mg/kg, 75 mg/mL solution (w/w %: 29.21 water, 62.55 PEG 300, 6.97 sodium salt of Formula (Ia), 1.68 poloxamer 188), read-out: AUC0-28d",101 ± 11 µM·h
same,concentration at 21 d,"beagle, 6 mg/kg, SC 6 mg/kg, 75 mg/mL solution (w/w %: 29.21 water, 62.55 PEG 300, 6.97 sodium salt of Formula (Ia), 1.68 poloxamer 188), read-out: C21d",40 ± 24 nM
same,Cmax,[2],69 ± 22 nM
same,AUC(0-t),"beagle, 6 mg/kg, SC 6 mg/kg, 300 mg/mL solution (w/w %: 21.97 water, 47.05 PEG 300, 25.21 Formula (Ia), 1.08 NaOH, 4.69 poloxamer 188), read-out: AUC0-56d",55.4 ± 20.8 µM·h
same,concentration at 56 d,[2],30.4 ± 7.2 nM
same,Cmax,[3],312 ± 93 nM
same,Tmax,[3],16.3 ± 4.04 days
same,concentration at 56 d,[3],22.9 ± 5.6 nM
same,Cmax,[4],133 ± 10 nM
same,Tmax,[4],14 days
same,AUC(0-t),"beagle, 12 mg/kg, SC 12 mg/kg, 300 mg/mL solution (w/w %: 9.8 water, 65.0 PEG 300, 25.2 Formula (Ia)), read-out: AUC0-126d",139 ± 8 µM·h
same,concentration at 84 d,"beagle, 12 mg/kg, SC 12 mg/kg, 300 mg/mL solution (w/w %: 9.8 water, 65.0 PEG 300, 25.2 Formula (Ia)), read-out: C84d",21.7 ± 6.5 nM
same,Cmax,[5],267 ± 176 nM
same,Tmax,[5],12.3 ± 9.62 days
same,AUC(0-t),"beagle, 12 mg/kg, SC 12 mg/kg, 300 mg/mL solution (w/w %: 23.2 water, 50.0 PEG 300, 25.7 Formula (Ia), 1.1 NaOH), read-out: AUC0-56d",166 ± 110 µM·h
same,concentration at 56 d,[5],29.6 ± 30.8 nM
same,AUC(0-t),"beagle, 12 mg/kg, SC 12 mg/kg, 400 mg/mL solution in 10% ethanol, 13% water, 77% PEG 200, read-out: AUC0-84d",89.6 ± 10.1 µM·h
